These results are taken from ChEMBL document CHEMBL1201862, “PubChem BioAssay data set” (2004).

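48-hour exposure; five concentrations; linearly interpolated endpoints. The concentration for 50% growth inhibition is given as GI50.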 Active and inactive are the calls of the source. Cut-off read from the data, not from the text of the source: active = GI50 up to about 1.1 µM and inactive = higher. Where only a bound is given, the exact number is not on record here.

What all share (test): growth of human tumour cells (NCI), 48 h
The test system of assay [1] is 786-0.
The subject of assay [2] is CAKI-1.
Assay [3] concerns CCRF-CEM.
Assay [4] deals with HL-60.
Assay [5] deals with Hs-578T.
In assay [6] the test system is M14.
Assay [7] relates to MCF7.
For assay [8], the system named is MDA-MB-231.
In assay [9] the test system is MDA-N.
Assay [10] has as its system RPMI-8226.
The subject of assay [11] is SF-268.
Assay [12] concerns SF-295.
For assay [13], the system named is SK-MEL-28.
Assay [14] has as its system SK-OV-3.
For assay [15], the system named is SN12C.
For assay [16], the system named is SW-620.
The subject of assay [17] is TK-10.
Assay [18] deals with U-251.
Assay [19] relates to UACC-257.
The subject of assay [20] is UACC-62.

For `COc1cccc(N(CN2C(=O)CCC2OC)C(C)=O)c1` (stereo not given), the GI50 in [1] was > 100 µM (inactive); in [2], > 100 µM (inactive); in assay [3], > 100 µM (inactive); in assay [4] it was 22.6 µM (inactive); in [5] it was > 100 µM (inactive); in assay [6] it was > 100 µM (inactive). Also, the GI50 in assay [7], in assay [8], in assay [9], in [10], in assay [11] and in [12] was > 100 µM (inactive) throughout. Also, the GI50 in assay [13], in assay [14], in assay [15], in assay [16], in [17] and in [18] was > 100 µM (inactive) throughout. Also, the GI50 in assay [19] and in [20] was > 100 µM (inactive) each time.
For `Cc1ncc([N+](=O)[O-])n1CCNC(=O)CCCn1cnc([N+](=O)[O-])n1`, the GI50 in assay [1], in [2], in [3], in [4], in assay [5] and in [6] was > 100 µM (inactive) each time. Further, the GI50 in assay [7], in [8], in assay [9], in [10], in [11] and in assay [12] was > 100 µM (inactive) throughout. For the same compound, the GI50 in assay [13] is > 100 µM (inactive); in [14], > 100 µM (inactive); in assay [15], > 41.8 µM (inactive); in assay [16] it was > 71.8 µM (inactive); in assay [17], > 45.8 µM (inactive); in assay [18] it was > 100 µM (inactive). Besides, the GI50 in assay [19] and in assay [20] was > 100 µM (inactive) throughout.
Consider `CC1=NN(c2ccc(C)cc2)C2(C1)SCC(=O)N2c1nc2ccccc2s1` (stereo not given), for which the GI50 in assay [1] was 20.1 µM (inactive); in assay [2], 31 µM (inactive); in assay [3] it was 5.22 µM (inactive); in [4] it was 13.1 µM (inactive); in assay [5], 32.1 µM (inactive); in assay [6], 22.7 µM (inactive). For the same compound, the GI50 in assay [7] was 4.7 µM (inactive); in assay [8] it was 15.5 µM (inactive); in [9], 20.7 µM (inactive); in [10] it was 17.7 µM (inactive); in assay [11], 20.2 µM (inactive); in assay [12], 13 µM (inactive). Besides, the GI50 in assay [13] was 24.2 µM (inactive); in assay [14], 22.1 µM (inactive); in [15] it was 11.2 µM (inactive); in assay [16], 24.3 µM (inactive); in assay [17], 28 µM (inactive); in assay [18] it was 16.6 µM (inactive). The GI50 in assay [19] was 19.5 µM (inactive); in assay [20], 14.3 µM (inactive).
In the case of `Fc1ccc(/C(=N/Cc2ccccc2)N2CCOCC2)cc1`, the GI50 in [1], in assay [2], in assay [3], in [4], in assay [5] and in [6] was > 100 µM (inactive) throughout. Besides, the GI50 in [7], in assay [8], in assay [9], in assay [10], in assay [11] and in assay [12] was > 100 µM (inactive) each time. Further, the GI50 in assay [13], in assay [14], in assay [15], in assay [16], in [17] and in [18] was > 100 µM (inactive) each time. In addition, the GI50 in assay [19] and in [20] was > 100 µM (inactive) throughout.
As to `Cc1cc(C)nc(NS(=O)(=O)c2ccc(NNC(=O)c3cccc4c(NNc5ccc(S(=O)(=O)Nc6nc(C)cc(C)n6)cc5)c5ccccc5nc34)cc2)n1`, the GI50 in assay [1] is 21.8 µM (inactive); in [2], 18.8 µM (inactive); in assay [3], 18.5 µM (inactive); in assay [4], 20.7 µM (inactive); in assay [5], 23.4 µM (inactive); in [6] it was 17.5 µM (inactive). In addition, the GI50 in assay [7] was 31.5 µM (inactive); in [8], 14.6 µM (inactive); in [9], 20.9 µM (inactive); in [10], 25.6 µM (inactive); in [11], 20.7 µM (inactive); in [12] it was 31.8 µM (inactive). Moreover, the GI50 in assay [13] is 23.4 µM (inactive); in assay [14] it was 25.3 µM (inactive); in [15], 31.1 µM (inactive); in assay [16], 22.1 µM (inactive); in [17], 35.5 µM (inactive); in assay [18], 22.9 µM (inactive). The values for the GI50 in assay [19] and in assay [20] were 31 µM (inactive) and 18.5 µM (inactive), respectively.
As to `Cc1cccc(CC(Cc2ccc(C)cc2C(=O)O)C(=O)O)c1` (stereo not given), the GI50 in assay [1], in assay [2], in assay [3], in assay [4], in assay [5] and in assay [6] was > 100 µM (inactive) each time. Further, the GI50 in assay [7], in assay [8], in [9], in assay [10], in assay [11] and in assay [12] was > 100 µM (inactive) each time. The GI50 in assay [13] is > 100 µM (inactive); in assay [14], 74.1 µM (inactive); in [15], > 100 µM (inactive); in [16], > 100 µM (inactive); in assay [17] it was > 100 µM (inactive); in assay [18], > 100 µM (inactive). The GI50 is > 100 µM (inactive) in assay [19] and 42 µM (inactive) in [20].
As to `Oc1cc2c3c(c1)c1cc4c(cc1c[n+]3CC2)OCO4`, the GI50 in [1] is 1.08 µM (active); in [2], 10.2 µM (inactive); in assay [3], 2.84 µM (inactive); in assay [4], 3.97 µM (inactive); in assay [5], 0.906 µM (active); in assay [6], 32.1 µM (inactive). Moreover, the GI50 is 7.69 µM (inactive) in assay [7]; 2.79 µM (inactive) in assay [8]; 8.63 µM (inactive) in [9]; 1.77 µM (inactive) in assay [10]; 0.224 µM (active) in assay [11]; 2.97 µM (inactive) in assay [12]. Also, the GI50 was 7.82 µM (inactive) in assay [13]; 16.1 µM (inactive) in [14]; 1.29 µM (inactive) in [15]; 2.86 µM (inactive) in assay [16]; 13 µM (inactive) in assay [17]; 0.971 µM (active) in assay [18]. Moreover, the GI50 in [19] is 8.83 µM (inactive); in assay [20], 7.83 µM (inactive).
`COC(=O)/N=[N+](\[O-])C(c1ccc(OC)cc1)C1CCCCC1` (stereo not given): the GI50 in [1] is 3.82 µM (inactive); in [2] it was 2.12 µM (inactive); in assay [3], 2.2 µM (inactive); in [4], 0.787 µM (active); in assay [5] it was 6.3 µM (inactive); in [6], 2.99 µM (inactive). Besides, the GI50 was 7.35 µM (inactive) in assay [7]; 3 µM (inactive) in assay [8]; 2.03 µM (inactive) in assay [9]; 0.948 µM (active) in assay [10]; 4.23 µM (inactive) in [11]; 1.82 µM (inactive) in assay [12]. Also, the GI50 in assay [13] is 13.6 µM (inactive); in assay [14] it was 3.67 µM (inactive); in assay [15] it was 1.8 µM (inactive); in [16], 3.4 µM (inactive); in [17] it was 3.58 µM (inactive); in assay [18], 1.03 µM (active). Also, the GI50 in assay [19] is 1.47 µM (inactive); in assay [20], 6.03 µM (inactive).
In the case of `O=C(N1CCN(c2ccccc2)CC1)N(C(=O)C1(c2ccc(Cl)cc2)CCCC1)S(=O)(=O)c1ccccc1`, the GI50 in assay [1] was 34.5 µM (inactive); in [2] it was 26.5 µM (inactive); in assay [3], 29.7 µM (inactive); in [4], 27.7 µM (inactive); in assay [5], 29.8 µM (inactive); in [6], 21.1 µM (inactive). The GI50 was 26.9 µM (inactive) in assay [7]; 26.6 µM (inactive) in [8]; 22.1 µM (inactive) in assay [9]; 38.3 µM (inactive) in [10]; 39.9 µM (inactive) in assay [11]; 24.6 µM (inactive) in assay [12]. Moreover, the GI50 was 40.8 µM (inactive) in [13]; 30 µM (inactive) in assay [14]; 28.3 µM (inactive) in [15]; 32 µM (inactive) in assay [16]; 41.4 µM (inactive) in assay [17]; 21.8 µM (inactive) in [18]. In addition, the GI50 is 28.3 µM (inactive) in assay [19] and 20.6 µM (inactive) in assay [20].
`CCCCCCCCCCCCCC(=O)OC(/C=C/C(C)C)C(O)C(O)C(OC)C(=O)NC1CCCCNC1=O` (stereo not given): the GI50 in assay [1] is 0.308 µM (active); in [2] it was 0.48 µM (active); in assay [3], 0.587 µM (active); in [4], 0.9 µM (active); in [5], 9.79 µM (inactive); in assay [6], 0.655 µM (active). Further, the GI50 in assay [7] was 0.693 µM (active); in assay [8], 2.58 µM (inactive); in [9] it was 9.04 µM (inactive); in assay [10], 2.79 µM (inactive); in [11] it was 1.52 µM (inactive); in assay [12], 0.721 µM (active). Moreover, the GI50 in assay [13] is 1.61 µM (inactive); in [14] it was 2.54 µM (inactive); in [15], 0.579 µM (active); in [16], 0.372 µM (active); in assay [17], 5.6 µM (inactive); in assay [18], 0.673 µM (active). In addition, the GI50 in [19] is 2.84 µM (inactive); in [20] it was 0.697 µM (active).
